This note sets out measurements from patent KR20130112248A, “피라졸로피리미딘 유도체 화합물, 이를 포함하는 산화질소 생성 억제용 조성물 및 뇌신경 질환 예방 및 치료용 약학적 조성물” (한국과학기술연구원, priority 2012, dated 2013).

For the first assay, the system named is NO production in BV-2 cells [NO 생성; BV-2 세포]. In words: Nitric oxide (NO) quantification (nitrite, Griess reaction) in LPS-activated BV-2 cells. The assay is classed as cell-based. The settings on record: 20 μM, LPS 0.2 ㎍/mL, 24 h co-treatment, nitrite by Griess at 540 nm. (In general: The Griess reaction detects nitrite, a stable product of nitric oxide.)
“1-(2-메톡시펜에틸)-N-(4-메톡시벤질)-6-(메틸설포닐)-1H-피라졸로[3,4-d]피리미딘-4-아민 [화합물 23zb]”: the “NO (% of LPS)” value is listed as 49±2.9 % of LPS.
Turning to “N-벤질-1-메틸-6-(메틸티오)피라졸로[3,4-d]피리미딘-4-아민 [화합물 12n]”, the “NO (% of LPS)” value is 51±1 % of LPS.

The assay is the same for the next values; noted with them: 20 μM, LPS 0.2 ㎍/mL, 24 h co-treatment, nitrite by Griess at 540 nm, 1440 min.
In the case of `CSc1nc(NCc2ccccn2)c2cn[nH]c2n1` [6h, 4-(피리딘-2-일)메틸아미노-6-(메틸티오)피라졸로[3,4-d]피리미딘], the “NO (% of LPS)” value is 97±5 % of LPS.
As to `CSc1nc(NC(C)c2ccccc2)c2cnn(Cc3ccccc3)c2n1` (centres unmarked) [화합물 16k, 1-벤질-6-(메틸티오)-N-(1-페닐에틸)-1H-피라졸로[3,4-d]피리미딘-4-아민], the “NO (% of LPS)” value is listed as 31±0.5 % of LPS.

The assay is the same for the next values; noted with them: Mus musculus, BV-2, 24 h, 20 μM, LPS 0.2 ㎍/mL, 24 h co-treatment, nitrite by Griess at 540 nm.
Turning to `CSc1nc(NC(c2ccccc2)c2ccc(Cl)cc2)c2cnn(-c3ccc(C)cc3)c2n1` (centres unmarked) [화합물 21g, N-((4-클로로페닐)(페닐)메틸)-6-(메틸티오)-1-p-톨릴-1H-피라졸로[3,4-d]피리미딘-4-아민], the activity at 20 µM was found to be 79 ± 1.8%.
On to `CSc1nc(NCc2ccccn2)c2cn[nH]c2n1` [6y, 6-(메틸티오)-N-((피리딘-2-일)메틸)-1H-피라졸로[3,4-d]피리미딘-4-아민], for which the activity at 20 µM worked out at 90 ± 2.9%.
As for `COc1ccccc1CNc1nc(S(C)(=O)=O)nc2c1cnn2-c1ccc(F)cc1` [화합물 23i, N-(2-메톡시벤질)-1-(4-플루오로페닐)-6-(메틸설포닐)-1H-피라졸로[3,4-d]피리미딘-4-아민], the activity at 20 µM turned out to be 35 ± 7.3%.
Same read-out and setting: as for `CSc1nc(Cl)c2cnn(-c3ccc(F)cc3)c2n1` [5h, 1-(4-플루오로페닐)-4-클로로-6-(메틸티오)피라졸로[3,4-d]피리미딘], the figure is 9 ± 42.2%; as for `COc1ccc([C@H](C)Nc2nc(S(C)(=O)=O)nc3c2cnn3-c2ccccc2)cc1` [화합물 23h, N-((S)-1-(4-메톡시페닐)에틸)-6-(메틸설포닐)-1-페닐-1H-피라졸로[3,4-d]피리미딘-4-아민], 41 ± 5.7%.
For the compound `CSc1nc(NC(c2ccccc2)c2ccc(Cl)cc2)c2cnn(-c3ccccc3)c2n1` (centres unmarked) [화합물 15z, N-((4-클로로페닐)(페닐)메틸)-6-(메틸티오)-1-페닐-1H-피라졸로[3,4-d]피리미딘-4-아민], the activity at 20 µM worked out at 46 ± 0.6%.
On the same count and under the same terms, with `CSc1nc(NCc2ccccc2)c2c(-c3ccccc3)nn(-c3ccccc3)c2n1` [화합물 31a, 1-페닐-3-페닐-4-벤질아미노-6-(메틸티오)피라졸로[3,4-d]피리미딘] the figure was 68 ± 28%; with `CSc1nc(NCc2ccc(F)cc2)c2cnn(C)c2n1` [12f, 1-메틸-4-(4-플루오로벤질)아미노-6-(메틸티오)피라졸로[3,4-d]피리미딘], 72 ± 2%; with `COc1cccc(CNc2nc(S(C)(=O)=O)nc3c2cnn3CCc2ccccc2OC)c1` [화합물 23z, 1-(2-메톡시펜에틸)-N-(3-메톡시벤질)-6-(메틸설포닐)-1H-피라졸로[3,4-d]피리미딘-4-아민], 51 ± 3.5%.
On the same count and under the same terms, as for `CCCCNc1nc(SC)nc2[nH]ncc12` [6e, 4-n-뷰틸아미노-6-(메틸티오)피라졸로[3,4-d]피리미딘], the figure is 83 ± 9%; as for `CSc1nc(Sc2c(Cl)cccc2Cl)c2cnn(Cc3ccccc3)c2n1` [화합물 16t, 4-(2,6-다이클로로페닐티오)-1-벤질-6-(메틸티오)-1H-피라졸로[3,4-d]피리미딘], 43 ± 1.2%.
The same measure, in the same setting: as for `COc1ccccc1CCn1ncc2c(NCc3ccccc3)nc(SC)nc21` [화합물 19e, 1-(2-메톡시펜에틸)-N-벤질-6-(메틸티오)-1H-피라졸로[3,4-d]피리미딘-4-아민], the figure is 60 ± 5.9%.
For the compound `CSc1nc(N[C@H](C)c2ccccc2)c2cnn(-c3ccccc3)c2n1` [화합물 15h, (R)-1-페닐-4-(1-페닐에틸)아미노-6-(메틸티오)피라졸로[3,4-d]피리미딘], the activity at 20 µM is 29 ± 4.6%.
On the same count and under the same terms, with `CCSc1nc(SC)nc2c1cnn2Cc1ccccc1` [화합물 16l, 1-벤질-4-(에틸티오)-6-(메틸티오)-1H-피라졸로[3,4-d]피리미딘] the figure was 48 ± 5.1%; with `Cc1ccc(C(C)Nc2nc(S(C)(=O)=O)nc3c2cnn3Cc2ccccc2)cc1` (centres unmarked) [화합물 23u, 1-벤질-6-(메틸설포닐)-N-(1-p-톨릴에틸)-1H-피라졸로[3,4-d]피리미딘-4-아민], 120 ± 3.1%.
Same read-out and setting: as for `CSc1nc(NCCO)c2cn[nH]c2n1` [6f, 4-(1-하이드록시에틸)아미노-6-(메틸티오)피라졸로[3,4-d]피리미딘], the figure is 87 ± 6%; as for `COc1ccc(Sc2nc(SC)nc3c2cnn3Cc2ccccc2)cc1` [화합물 16q, 4-(4-메톡시페닐티오)-1-벤질-6-(메틸티오)-1H-피라졸로[3,4-d]피리미딘], 40 ± 1.8%.
The same measure, in the same setting: as for `CC(Nc1nc(NCCO)nc2c1cnn2Cc1ccccc1)c1ccccc1` (centres unmarked) [화합물 24a, 2-(4-(1-페닐에틸아미노)-1-벤질-1H-피라졸로[3,4-d]피리미딘-6-일아미노)에탄올], the figure is 78 ± 1.4%; as for `CSc1nc(NCc2ccccc2)c2cnn(CCNC(=O)OC(C)(C)C)c2n1` [화합물 14a, 1-(N-t-Boc-아미노에틸)-4-벤질아미노-6-(메틸티오)피라졸로[3,4-d]피리미딘], 58 ± 6%; as for `CSc1nc(NCc2ccccc2)c2cnn(C(C)(C)C)c2n1` [화합물 17a, 1-t-뷰틸-4-벤질아미노-6-(메틸티오)피라졸로[3,4-d]피리미딘], 73 ± 3%.
As for `C=CCn1ncc2c(NCc3ccc(F)cc3)nc(SC)nc21` [화합물 13d, 1-알릴-4-(4-플루오로벤질)아미노-6-(메틸티오)피라졸로[3,4-d]피리미딘], the activity at 20 µM stood at 14 ± 39%.
Turning to `COc1cccc(CCn2ncc3c(NCc4ccccc4OC)nc([S+](C)[O-])nc32)c1` (centres unmarked) [화합물 22l, N-(2-메톡시벤질)-1-(3-메톡시펜에틸)-6-(메틸설파이닐)-1H-피라졸로[3,4-d]피리미딘-4-아민], the activity at 20 µM was 60 ± 3.3%.
On the same count and under the same terms, as for `C=CCNc1nc(SC)nc2c1cnn2CCO` [화합물 27c, 1-(1-하이드록시에틸)-4-알릴아미노-6-(메틸티오)피라졸로[3,4-d]피리미딘], the figure is 98 ± 6%; as for `CSc1nc(Cl)c2c(-c3ccccc3)nn(C(C)(C)C)c2n1` [화합물 30c, 1-t-뷰틸-3-페닐-4-클로로-6-(메틸티오)피라졸로[3,4-d]피리미딘], 21 ± 22%; as for `CSc1nc2c(cnn2C(C)(C)C)c(=S)[nH]1` [9d, 1-t-뷰틸-6-(메틸티오)피라졸로[3,4-d]피리미딘-4-티온], 108 ± 5%.
Still for that read-out and setting: as for `CC(Nc1nc(NCCCCO)nc2c1cnn2Cc1ccccc1)c1ccccc1` (centres unmarked) [화합물 24c, 4-(4-(1-페닐에틸아미노)-1-벤질-1H-피라졸로[3,4-d]피리미딘-6-일아미노)부탄-1-올], the figure is 123 ± 5.4%; as for `COc1ccccc1CNc1nc(SC)nc2c1cnn2CCO` [화합물 27i, 2-(4-(2-메톡시벤질아미노)-6-(메틸티오)-1H-피라졸로[3,4-d]피리미딘-1-일)에탄올], 83.5 ± 3.1%; as for `COc1ccccc1CCn1ncc2c(NCc3ccccc3OC)nc(SC)nc21` [화합물 19i, N-(2-메톡시벤질)-1-(2-메톡시펜에틸)-6-(메틸티오)-1H-피라졸로[3,4-d]피리미딘-4-아민], 23.1 ± 0.5%.
Still for that read-out and setting: as for `C=CCn1ncc2c(Cl)nc(SC)nc21` [5b, 1-알릴-4-클로로-6-(메틸티오)피라졸로[3,4-d]피리미딘], the figure is 63 ± 8%.
As for `COc1ccccc1CNc1nc(SC)nc2c1cnn2Cc1ccccc1` [화합물 16zc, N-(2-메톡시벤질)-1-벤질-6-(메틸티오)-1H-피라졸로[3,4-d]피리미딘-4-아민], the activity at 20 µM was determined as 50 ± 1.1%.
On to `C=CCn1ncc2c(NCc3ccccc3Cl)nc(SC)nc21` [화합물 13o, N-(2-클로로벤질)-1-알릴-6-(메틸티오)-1H-피라졸로[3,4-d]피리미딘-4-아민], for which the activity at 20 µM turned out to be 17.5 ± 1.5%.
For `COc1cccc(CNc2nc(SC)nc3c2cnn3C)c1` [화합물 12k, 1-메틸-4-(3-메톡시벤질)아미노-6-(메틸티오)피라졸로[3,4-d]피리미딘], the activity at 20 µM worked out at 94 ± 5%.
Still for that read-out and setting: with `CSc1nc(NCc2ccccc2C)c2cnn(Cc3ccccc3)c2n1` [화합물 16f, 1-벤질-4-(2-메틸벤질)아미노-6-(메틸티오)피라졸로[3,4-d]피리미딘] the figure was 35 ± 6%; with `CSc1nc(NCc2ccc(C)cc2)c2cnn(-c3ccc(C)cc3)c2n1` [화합물 21f, N-(4-메틸벤질)-6-(메틸티오)-1-p-톨릴-1H-피라졸로[3,4-d]피리미딘-4-아민], 49 ± 5.9%; with `CSc1nc(NCc2ccccc2)c2cnn(-c3ccccc3)c2n1` [화합물 15a, 1-페닐-4-벤질아미노-6-(메틸티오)피라졸로[3,4-d]피리미딘], 53 ± 12%.
Turning to `CSc1nc(NC(C)(C)CO)c2cn[nH]c2n1` [6l, 4-(2-하이드록시-1-다이메틸에틸)아미노-6-(메틸티오)피라졸로[3,4-d]피리미딘], the activity at 20 µM was 125 ± 14%.
`COc1cccc(CCn2ncc3c(NCc4ccccc4OC)nc(S(C)(=O)=O)nc32)c1` [화합물 23x, N-(2-메톡시벤질)-1-(3-메톡시펜에틸)-6-(메틸설포닐)-1H-피라졸로[3,4-d]피리미딘-4-아민]: the activity at 20 µM is 35 ± 4.3%.
`CSc1nc(NC(C)C2CCCCC2)c2cnn(-c3ccccc3)c2n1` (centres unmarked) [화합물 15za, N-(1-사이클로헥실에틸)-6-(메틸티오)-1-페닐-1H-피라졸로[3,4-d]피리미딘-4-아민]: the activity at 20 µM is 36 ± 0.7%.
For the compound `CSc1nc(NCc2ccccc2C)c2cnn(-c3ccc(F)cc3)c2n1` [화합물 20c, N-(2-메틸벤질)-1-(4-프루오로페닐)-6-(메틸티오)-1H-피라졸로[3,4-d]피리미딘-4-아민], the activity at 20 µM was found to be 47 ± 8%.
Still for that read-out and setting: as for `CSc1nc(NCc2ccc(Cl)cc2)c2cnn(-c3ccccc3)c2n1` [화합물 15n, 1-페닐-4-(4-클로로벤질)아미노-6-(메틸티오)피라졸로[3,4-d]피리미딘], the figure is 63 ± 6%; as for `CSc1nc(NC(C)C2CCCCC2)c2cnn(-c3ccc(C)cc3)c2n1` (centres unmarked) [화합물 21h, N-(1-사이클로헥실에틸)-6-(메틸티오)-1-p-톨릴-1H-피라졸로[3,4-d]피리미딘-4-아민], 73 ± 2.6%; as for `CSc1nc(N2CCN(C)CC2)c2cnn(-c3ccccc3)c2n1` [화합물 15u, 1-페닐-4-(4-메틸)피페라지노-6-(메틸티오)피라졸로[3,4-d]피리미딘], 64%.
The same measure, in the same setting: as for `CSc1nc(NCc2ccc(Cl)cc2)c2cnn(C(C)(C)C)c2n1` [화합물 17j, N-(4-클로로벤질)-1-t-뷰틸-6-(methylthio)-1H-피라졸로[3,4-d]피리미딘-4-아민], the figure is 19 ± 3.9%.
Regarding `COc1cccc(CNc2nc(SC)nc3c2cnn3-c2ccc(F)cc2)c1` [화합물 20d, N-(3-메톡시벤질)-1-(4-플루오로페닐)-6-(메틸티오)-1H-피라졸로[3,4-d]피리미딘-4-아민], the activity at 20 µM is 43 ± 5.9%.
Still for that read-out and setting: as for `C=CCn1ncc2c(NCCO)nc(SC)nc21` [화합물 13c, 1-알릴-4-(1-하이드록시에틸)아미노-6-(메틸티오)피라졸로[3,4-d]피리미딘], the figure is 77 ± 7%; as for `CSc1nc(NCc2ccc(F)cc2)c2cnn(C(C)(C)C)c2n1` [화합물 17c, 1-t-뷰틸-4-(4-플루오로벤질)아미노-6-(메틸티오)피라졸로[3,4-d]피리미딘], 59 ± 2%.

Staying with this assay, now noted: Mus musculus, BV-2, 24 h, 30 μM, LPS 0.2 ㎍/mL, 24 h co-treatment, nitrite by Griess at 540 nm.
As to `CSc1nc(Cl)c2cnn(-c3ccc(F)cc3)c2n1` [5h, 1-(4-플루오로페닐)-4-클로로-6-(메틸티오)피라졸로[3,4-d]피리미딘], the activity at 30 µM came out at 59.6%.
Still for that read-out and setting: as for `CSc1nc2[nH]ncc2c(=S)[nH]1` [9a, 6-(메틸티오)피라졸로[3,4-d]피리미딘-4-티온], the figure is 98 ± 5.5%; as for `CCOc1nc(SC)nc2[nH]ncc12` [10b, 4-에톡시-6-(메틸티오)피라졸로[3,4-d]피리미딘], 93 ± 9%.
